Data set [1] has as its system hiPSC-derived immature human dorsal root ganglia neuron-like cells. Briefly: PeriTox (UKN5a) neurite outgrowth assay. The data set is classed as cell-based. How it is done: PeriTox assay was performed as previously described. In brief, cryopreserved hiPSC-derived immature human dorsal root ganglia neuron-like cells were thawed and plated at a density of 100,000 cells/cm^2 into matrigel-coated 96-well plates. The cells were cultured in 75 µL PeriTox differentiation medium (PDM) consisting of 25% KSR-S and 75% N2-S media supplemented with 1.5 µM CHIR99021, 1.5 µM SU5402, and 5 µM DAPT (KSR-S: knockout DMEM with 15% serum replacement, 1x Glutamax, 1x nonessential amino acids, and […] beta-mercaptoethanol; N2-S: DMEM/F12, with 2 mM Glutamax, 0.1 mg/mL apotransferrin, 1.55 mg/mL glucose, 25 µg/mL insulin, […] putrescine, 30 nM selenium, and 20 nM progesterone). After one hour, 25 µL PDM with 4x concentrated serial dilutions of the test compounds was added to the cells.
The image acquisition and analysis were conducted according to established protocols. The cells were stained with Hoechst H-33342 (1 µg/mL) to visualise nuclei and calcein-AM (1 µM) to label viable cell structures. Fluorescent images were acquired using an automated imaging system. An image analysis algorithm detected nuclei to define somatic regions, which were then excluded from the total calcein-positive area. The remaining signal was quantified as the neurite area.
In the first step, matched technical replicates were averaged. […] For visualisation, GraphPad Prism 9 was used. […]
Supplementary Figure S1: Comparison of data from the MitoMet test and the PeriTox test. A) Exposure scheme for the PeriTox test (UKN5a):
For testing, cryopreserved hiPSC-derived immature human dorsal root ganglia neuron-like cells were thawed and plated into 96-well plates. Cells were treated with toxicants at one h after plating. Neurite outgrowth and viability were determined at 24 h later, using automated high content imaging. B) Benchmark concentrations (BMC25) were calculated as a measure for “onset of toxicity” for the MitoMet (UKN4b; as described in Figure 1) and UKN5a assay. If no BMC could be determined, the highest tested concentration was used as surrogate endpoint. The arrows indicate the sensitivity shifts of parent vs metabolite in the respective assay. […]

For data set [2] the following is noted: for metabolite formation over time: samples every 30 min for 2 h. The method, then:
Parent compounds were incubated at final concentrations of either (a) 5 µM or (b) 50 µM (for chlorfenapyr) with pooled human liver microsomes (HLM; mixed gender, n = 150; BioIVT; West Sussex, UK) at corresponding protein concentrations of (a) 0.52 mg/mL or (b) 5.2 mg/mL. Incubations were performed in the absence or presence of NADPH at final concentrations of (a) 1 mM or (b) 10 mM, respectively, using a thermostated orbital shaker at 37 °C and 150 rpm. Reactions were terminated at designated time points by the addition of acetonitrile/methanol (3:1, v/v). Samples were then centrifuged at 10,000× g for 10 min, and the resulting supernatants were analysed by LC-MS/MS.
All analytes were measured using an Acquity UPLC H-Class system coupled to a Xevo TQ-S micro mass spectrometer (Waters). Chromatographic separation was performed on an Acquity UPLC BEH C18 column (2.1 × 50 mm, 1.7 µm) with a mobile phase consisting of 0.1% formic acid in water (A) and acetonitrile (B). Unless otherwise stated, the column was maintained at 30 °C and operated at a flow rate of 0.4 mL/min. The standard gradient was 95% A from 0 to 1.0 min, decreased to 2% A by 1.5 min, held until 4.0 min, returned to 95% A at 4.3 min, and held until 5.0 min. […] The mass spectrometer operated in electrospray ionisation (ESI) mode. Compound-specific MRM transitions, cone voltages, and collision energies for all analytes are listed in Supplementary Table S2.
Int. J. Mol. Sci. 2025, 26, x FOR PEER REVIEW 3 of 5
Supplementary Figure S3: Quantification of specific metabolite formation from selected parent/metabolite pairs in a human liver microsomes (HLM) assay. Parent compounds (PAR) were incubated at a concentration of 5 µM (50 µM for chlorfenapyr) with HLM in the absence (dashed line, open symbols) or presence of NADPH (solid lines, closed symbols). Samples were taken every 30 min for 2 h (+NADPH) or at 2 h only (- NADPH). The remaining fraction of the PAR was quantified for each sample. Additionally, one key metabolite (MET) was measured. Its amount is expressed as fraction of PAR converted to MET, assuming an equimolar PAR to MET reaction, 100 % indicates a complete conversion. The middle-dashed line indicates a metabolite formation of at least 10% of PAR. Data are means of two measurements n.d. = not detected.
(1 picture or pasted object on this page, not shown here)

Setting [3] is: human liver microsomes, listed under the metabolite.

Turning to `O=C(c1ccccc1)c1ccc(O)cc1` [4-Hydroxybenzophenone], in data set [1] (result in words), the “effect on peripheral neurite outgrowth” value is “neither benzophenone nor its hydroxy metabolite showed any significant effect”. The “extent of metabolite formation” value in data set [2] (human liver microsomes, result in words) was “only trace amounts”. In data set [2] (setting [3]), the “metabolite formation over time” value was “time-dependent increase in metabolite formation”.

As to `N#Cc1c(-c2ccc(Cl)cc2)[nH]c(C(F)(F)F)c1Br` [Tralopyril], in data set [1] (listed under the metabolite), the “parent/metabolite potency ratio (BMC25)” value is listed as 15. Further, the “cofactor (NADPH) dependence of metabolite formation” value in data set [2] (human liver microsomes ± NADPH, result in words) is listed as “clearly dependent on NADPH”. In addition, the “metabolite formation over time” value in data set [2] (setting [3]) is listed as “time-dependent increase in metabolite formation”. Besides, the “conversion rate of parent to metabolite” value in data set [2] (human liver microsomes, up to 2 h, listed under the metabolite) is given as “approximately 10%”.

Values taken from PMC12428754, “Testing Strategies for Metabolite-Mediated Neurotoxicity” (International Journal of Molecular Sciences, 2025).
